Literature values as cited in patent US20220409628A1, “18-MC FOR TREATING OBESITY” (Mind Medicine, Inc., priority 2021, published 2022).

What was measured:
female rats = conditions: pretreatment 20 mg/kg i.p., ghrelin 1 μg lateral ventricle
rats [1] = conditions: acute administration, 10-40 mg/kg i.p.
[2] = test system: extracellular dopamine in the nucleus accumbens; conditions: both 20 and 40 mg/kg, ghrelin 2 μg intraventral tegmental area
rats [3] = conditions: acute administration
rats [4] = conditions: unlimited access to sucrose (30%), chronic treatment 20 mg/kg i.p.
[5] = U.S. Pat. No. 6,780,871 to Glick, et al.
[6] = in vivo
male rats = conditions: repeated administration 20 mg/kg i.p.

Structure (SMILES): COCC[C@H]1CC2CN3CCc4c([nH]c5ccccc45)[C@](C(=O)OC)(C2)[C@H]13 [18-MC, 18-methoxycoronaridine]
- deposition of fat (ghrelin-treated rats): no effect
- serum levels of glucose, triglycerides, and cholesterol (ghrelin-treated rats): no effect
- ghrelin-induced increases in sucrose (5%) intake (female rats): blocked ghrelin-induced increases
- operant responding for sucrose (rats [1]): reduced operant responding for sucrose
- ghrelin-induced increases in extracellular dopamine in the nucleus accumbens [2]: prevented
- ad libitum ingestion of sucrose, saccharin, and saline (rats [3]; 10-40 mg/kg i.p.): decreased ad libitum ingestion
- consumption of water when palatable fluids were not available (rats [3]; highest dose): reduced consumption of water
- consumption of sucrose (rats [4]): reduced consumption of sucrose
- fat deposition (rats [4]): decreased fat deposition
- food intake (rats [4]): not altering food intake
- sucrose-induced increases in body weight (rats [4]): prevented sucrose-induced increases in body weight
- self-administration of morphine, cocaine, methamphetamine, nicotine, and sucrose [5]: reducing self-administration
- conditioned taste aversion to sucrose [6]: does not induce
- weight gain (male rats; both sucrose-consuming and control animals): attenuated weight gain
- food or fluid intake (male rats): without altering food or fluid intake
